Key:
[1] = tested on: Shionogi mouse mammary carcinoma cells; test: Antiandrogenic activity on DHT-stimulated Shionogi mouse mammary carcinoma cell number; assay type: cell-based; settings: inhibition of DHT-stimulated Shionogi cell number
[2] = tested on: ear sebaceous glands in the male hamster; test: Topical antiandrogenic activity, ear sebaceous glands model in the male hamster; assay type: in vivo, Golden Syrian hamster; settings: Mesocricetus auratus, topical, 336 h, dose 30 μg daily for 14 days, topical on left pinna; area of sebaceous glands of left ear; read-out: Ear Area Inhibition. Vs Control (%)
Source text: • Column 2 represent the daily dose for 14 days of tested compound dissolved in ten μl solution of acetone:ethanol:propylene Glycol (1:1:2; v:v:v) applied onto a region between the two cartilage ridges of the ventral surface of left pinna. • Column 3 represents the percentage of inhibition of the area of the sebaceous glands of the left ear of the treated animals versus the area of the sebaceous glands of the left ear of the control animals.
C—In vivo Assessment of Topical Antiandrogenic Activity
The antiandrogenic activity of compounds for topical use was determined using the ear sebaceous glands model in the male hamster.
Male Golden Syrian Hamsters (SYR) of 110-120 g were obtained from Harlan Sprague-Dawley (Madison, USA) and housed up to 2 per plastic cage in a temperature (22±3° C.) and light (12 h light/day, lights on at 7h15)-controlled environment. The hamsters were fed with Certified Rodent Diet 5002 (pellet) and had access to tap water ad libitum. The animals were acclimatized for at least five days prior to beginning the study. Animals were randomly assigned to groups of eight hamsters. One group of hamsters were castrated under isoflurane-induced anesthesia on the day of dosing initiation (SD 1) and used as control group.
To evaluate the antiandrogenic activity, the tested compounds were applied topically on the inner part of the left ear, once daily, for 14 days. […] For animals of the castrated and intact control groups, one ten-μL vehicle was applied onto the left ear. No solution was applied on the right ear.
On Study Day 15, the hamsters were euthanized by cervical dislocation under isoflurane anesthesia. The left and right ears were collected attached together by the head skin, flat fixed on a paper and then immersed in 10% neutral buffered formalin. Punctures making a circular hole of 6 mm were made on the flat fixed ear in the region where the solution has been applied. These punch-made specimens were collected from each ear. Using a scalpel blade, the collected 6 mm round ear specimens were cut in the middle between the two cartilage ridges. The two equal parts of the ear round specimens were embedded in paraffin. After processing the tissue, the two parts were vertically embedded parallel to each other in such a way that the flat 6 mm area was facing out. From each paraffin block, one section (5 μm thick) was cut and collected on a glass slide. Thus, each slide contained two elongated sections of 6 mm length. Slides were stained with hematoxylin and eosin.
Using the video camera and the lens number X5 of the light microscope, the resulting field appearing on the screen has a length of 0.953 mm. When the first 6 mm long section was examined from the left to the right, the first and second fields were ignored and the third and fourth fields were captured for analysis by the image analyzer. Each field has the length of 0.953 mm. With the help of the screen mouse, the sebaceous glands within the whole field length (0.953 mm) were marked. Also, an area having the length of the whole field and the height between stratum granulosum and the upper edge of the cartilage was drawn.
The total area of the sebaceous glands (μm^2) in each examined field was calculated by the Image Analyser. We also measured the total area, which has the length of 0.953 mm and the height between stratum granulosum and the cartilage. In addition, the percentage of the area occupied by the glands was obtained. Thus, for each ear, two sections were cut and two fields from each section were analyzed. The total of the four readings was averaged and the mean standard error of the mean was calculated by the image analyzer. The results were expressed in μm^2 as the total surface of glands per field and also as percentage of the area occupied by the glands in the tissue.

## N#Cc1ccc(-c2ccc(N)cc2)cc1C(F)(F)F [EM-4186]
[1]; Mus musculus, 10-12 days, read-out: Antiandrogenic activity IC50
  IC50: 118 nM
[1]; ratio of Ki of hydroxyflutamide versus tested compound, higher values preferable
  A = Ki OH-Flu/Ki compound: 1.2
[2]
  inhibition in vivo at 0.03 mg: 0%
